Like-named read-outs stand apart in the source and are kept apart here.
Columns and labels:
cucumber gray mold = assay: Activity in vitro (96-well, High Through Put): inhibition rate against cucumber gray mold; format: cell-based; conditions: for inhibition at 25 µg/mL: dose 25 mg/L
Description: The method is as followed: High Through Put is used in the test. The compound is dissolved in a proper solvent to become a testing solution whose concentration is designed. The solvent is selected from acetone, methanol, DMF and so on according to their dissolving capability to the sample. In a no animalcule condition, the testing solution and pathogens suspension are added into the cells of 96 cells culture board, which then should be placed in the constant temperature box. 24 hours later, pathogen germination or growth can be investigated by eyeballing, and the activity in vitro of the compound is evaluated based on germination or growth of control treatment.

rice blast = assay: microbe, parasite or virus in culture; format: cell-based; conditions: for the inhibition rate against rice blast (%) 0.03 mg/L: Table 21, 0.03 mg/L; for the inhibition rate against rice blast (%) 0.1 mg/L: Table 21, 0.1 mg/L; for the inhibition rate against rice blast (%) 0.3 mg/L: Table 21, 0.3 mg/L; for inhibition at 0.03 µg/mL: read-out: the inhibition rate against rice blast (%) 0.03 mg/L; for inhibition at 0.1 µg/mL: read-out: the inhibition rate against rice blast (%) 0.1 mg/L
corn rust = assay: Protectant activity in vivo (whole plant) against corn rust
Description: The method is as followed: The whole plant is used in this test. The compound is dissolved in a proper solvent to get mother solution. The proper solvent is selected from acetone, methanol, DMF and so on according to their dissolving capability to the sample. The volume rate of solvent and testing solution (v/v) is equal to or less than 5%. The mother solution is diluted with water containing 0.1% tween-80 to get the testing solution whose concentration is designed. The testing solution is sprayed to the host plant by a special plant sprayer. The plant is inoculated with fungus after 24 hours. According to the infecting characteristic of fungus, the plant is stored in a humidity chamber and then transferred into greenhouse after infection is finished. And the other plants are placed in greenhouse directly. The activity of compound is obtained by eyeballing after 7 days in common.

cucumber downy mildew = assay: Protectant activity in vivo (whole plant) against cucumber downy mildew; conditions: for pest or weed control at 12.5 µg/mL / pest or weed control at 25 µg/mL / pest or weed control at 50 µg/mL / pest or weed control at 100 µg/mL: Cucumis sativus, 168 h
Method in brief: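 Whole plants sprayed with test solution, water plus 0.1% Tween-80 and no more than 5% solvent, then inoculated with the pathogen after 24 h. Plants held in humidity chamber or directly in greenhouse depending on fungus. Disease control scored by eye at about 7 days.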

[1] = 0.9 mg/L, read-out: the inhibition rate against cucumber gray mold (%)
[2] = 2.8 mg/L, read-out: the inhibition rate against cucumber gray mold (%)
[3] = 8.3 mg/L, read-out: the inhibition rate against cucumber gray mold (%)
[4] = in vitro, dose 2.8 mg/L, read-out: inhibition rate against cucumber gray mold
[5] = Pyricularia oryzae, read-out: inhibition rate against rice blast
[6] = Pyricularia oryzae, read-out: the inhibition rate against rice blast (%) 0.3 mg/L
[7] = 25 mg/L, read-out: the protectant activity (%) against cucumber downy mildew
[8] = 50 mg/L, read-out: the protectant activity (%) against cucumber downy mildew
[9] = 100 mg/L, read-out: the protectant activity (%) against cucumber downy mildew
[10] = dose 25 mg/L, read-out: protectant activity against cucumber downy mildew in vivo
[11] = dose 50 mg/L, read-out: protectant activity against cucumber downy mildew in vivo

Compound | the inhibition rate against cucumber gray mold (%) (cucumber gray mold; 0.3 mg/L) | the inhibition rate against cucumber gray mold (%) (cucumber gray mold; 0.9 mg/L) | the inhibition rate against cucumber gray mold (%) (cucumber gray mold; 2.8 mg/L) | the inhibition rate against cucumber gray mold (%) (cucumber gray mold; 8.3 mg/L) | the inhibition rate against rice blast (%) 0.03 mg/L (rice blast) [%] | the inhibition rate against rice blast (%) 0.1 mg/L (rice blast) [%] | the inhibition rate against rice blast (%) 0.3 mg/L (rice blast) [%] | inhibition at 0.3 µg/mL (cucumber gray mold; 0.3 mg/L) [%] | inhibition at 0.9 µg/mL (cucumber gray mold; [1]) [%] | inhibition at 2.8 µg/mL (cucumber gray mold; [2]) [%] | inhibition at 8.3 µg/mL (cucumber gray mold; [3]) [%] | inhibition at 0.03 µg/mL (rice blast; Pyricularia oryzae) [%] | inhibition at 0.1 µg/mL (rice blast; Pyricularia oryzae) [%] | inhibition at 0.3 µg/mL (rice blast; [6]) [%] | further results
N#Cc1c(Cl)c(Cl)c(Nc2c(F)cc([N+](=O)[O-])cc2F)c(Cl)c1C#N [Compound A-43] | 100 | 100 | 100 | 100 | 100 | 100 | 100 |  |  |  |  |  |  |  | protectant activity against corn rust in vivo (corn rust; dose 400 mg/L): 100%
N#Cc1c(Cl)c(Cl)c(Nc2c(Cl)cncc2Cl)c(Cl)c1C#N [Compound A-87] |  |  |  |  | 100 | 100 | 100 |  |  |  |  |  |  |  | inhibition rate against cucumber gray mold (cucumber gray mold; in vitro, dose 8.3 mg/L): 80%; the protectant activity (%) against corn rust (corn rust; 6.25 mg/L): 50%; the protectant activity (%) against corn rust (corn rust; 25 mg/L): 80%; the protectant activity (%) against corn rust (corn rust; 100 mg/L): 100%; the protectant activity (%) against corn rust (corn rust; 400 mg/L): 100%; protectant activity against corn rust in vivo (corn rust; dose 100 mg/L): 100%
N#Cc1c(Cl)c(Cl)c(Nc2cc(C(F)(F)F)ccc2Cl)c(C#N)c1Cl [Compound B-29] |  | 50 | 80 | 80 | 0 | 50 | 100 |  |  |  |  |  |  |  | inhibition rate against cucumber gray mold (cucumber gray mold; in vitro, dose 8.3 mg/L): 80%; the protectant activity (%) against cucumber downy mildew (cucumber downy mildew; 12.5 mg/L): 30%; the protectant activity (%) against cucumber downy mildew (cucumber downy mildew; 25 mg/L): 100%; the protectant activity (%) against cucumber downy mildew (cucumber downy mildew; 50 mg/L): 100%; the protectant activity (%) against cucumber downy mildew (cucumber downy mildew; 100 mg/L): 100%; protectant activity against cucumber downy mildew in vivo (cucumber downy mildew; dose 25 mg/L): 100%; protectant activity against cucumber downy mildew in vivo (cucumber downy mildew; dose 50 mg/L): 100%; protectant activity against cucumber downy mildew in vivo (cucumber downy mildew; dose 100 mg/L): 100%; protectant activity against cucumber downy mildew in vivo (cucumber downy mildew; dose 400 mg/L): 100%
N#Cc1c(Cl)c(Cl)c(Nc2ccc([N+](=O)[O-])cc2Cl)c(C#N)c1Cl [Compound B-35] | 100 | 100 | 100 | 100 | 50 | 80 | 100 |  |  |  |  |  |  |  | the protectant activity (%) against cucumber downy mildew (cucumber downy mildew; 12.5 mg/L): 98%; the protectant activity (%) against cucumber downy mildew (cucumber downy mildew; 25 mg/L): 98%; the protectant activity (%) against cucumber downy mildew (cucumber downy mildew; 50 mg/L): 98%; the protectant activity (%) against cucumber downy mildew (cucumber downy mildew; 100 mg/L): 100%; protectant activity against cucumber downy mildew in vivo (cucumber downy mildew; dose 12.5 mg/L): 98%; protectant activity against cucumber downy mildew in vivo (cucumber downy mildew; dose 50 mg/L): 98%; protectant activity against cucumber downy mildew in vivo (cucumber downy mildew; dose 100 mg/L): 100%; protectant activity against cucumber downy mildew in vivo (cucumber downy mildew; dose 400 mg/L): 100%
N#Cc1cc(Cl)c(Nc2c(Cl)c(Cl)c(C#N)c(Cl)c2C#N)c(Cl)c1 [Compound B-51] |  | 80 | 80 | 100 | 0 | 50 | 100 |  |  |  |  |  |  |  | 
N#Cc1c(Cl)c(Cl)c(Nc2c(F)cc([N+](=O)[O-])cc2Cl)c(C#N)c1Cl [Compound B-53] | 0 | 100 | 100 | 100 | 100 | 100 | 100 |  |  |  |  |  |  |  | protectant activity against cucumber downy mildew in vivo (cucumber downy mildew; dose 50 mg/L): 98%; protectant activity against cucumber downy mildew in vivo (cucumber downy mildew; dose 100 mg/L): 100%; protectant activity against cucumber downy mildew in vivo (cucumber downy mildew; dose 400 mg/L): 100%; the protectant activity (%) against corn rust (corn rust; 6.25 mg/L): 30%; the protectant activity (%) against corn rust (corn rust; 25 mg/L): 50%; the protectant activity (%) against corn rust (corn rust; 100 mg/L): 80%; the protectant activity (%) against corn rust (corn rust; 400 mg/L): 100%
N#Cc1c(F)c(F)c(Nc2ccc(C(F)(F)F)cc2Cl)c(C#N)c1F [Compound B-92] |  |  |  |  |  |  |  |  |  |  |  |  |  |  | inhibition rate against rice blast (rice blast; in vitro, dose 0.3 mg/L): 80%; protectant activity against cucumber downy mildew in vivo (cucumber downy mildew; dose 50 mg/L): 98%; protectant activity against cucumber downy mildew in vivo (cucumber downy mildew; dose 100 mg/L): 100%; protectant activity against cucumber downy mildew in vivo (cucumber downy mildew; dose 400 mg/L): 100%; protectant activity against corn rust in vivo (corn rust; dose 100 mg/L): 100%; protectant activity against corn rust in vivo (corn rust; dose 400 mg/L): 100%
N#Cc1c(Cl)c(Cl)c(C#N)c(Nc2c(F)cc([N+](=O)[O-])cc2F)c1Cl [Compound C-45] | 100 | 100 | 100 | 100 | 100 | 100 | 100 |  |  |  |  |  |  |  | 
N#Cc1c(Cl)c(Cl)c(C#N)c(Nc2c(F)cc([N+](=O)[O-])cc2Cl)c1Cl [Compound C-46] | 100 | 100 | 100 | 100 | 100 | 100 | 100 |  |  |  |  |  |  |  | protectant activity against corn rust in vivo (corn rust; dose 400 mg/L): 80%
COc1ccc(Nc2c(F)c(F)c(C#N)c(F)c2C#N)cc1 [KC10] |  |  |  |  |  |  |  | 0 | 0 | 0 | 80 | 0 | 0 | 0 | inhibition at 2.8 µg/mL (cucumber gray mold; [4]): 0%; inhibition at 0.3 µg/mL (rice blast; [5]): 0%; inhibition at 0.9 µg/mL (rice blast; [5]): 50%; pest or weed control at 12.5 µg/mL (cucumber downy mildew; 12.5 mg/L): 0%; pest or weed control at 25 µg/mL (cucumber downy mildew; [7]): 0%; pest or weed control at 50 µg/mL (cucumber downy mildew; [8]): 10%; pest or weed control at 100 µg/mL (cucumber downy mildew; [9]): 20%; pest or weed control at 25 µg/mL (cucumber downy mildew; [10]): 0%; pest or weed control at 50 µg/mL (cucumber downy mildew; [11]): 10%
N#Cc1c(F)c(F)c(Nc2ccc([N+](=O)[O-])cc2)c(C#N)c1F [KC11] |  |  |  |  |  |  |  | 0 | 0 | 0 | 50 | 0 | 0 | 0 | inhibition at 2.8 µg/mL (cucumber gray mold; [4]): 0%; inhibition at 0.9 µg/mL (rice blast; [5]): 0%; pest or weed control at 12.5 µg/mL (cucumber downy mildew; 12.5 mg/L): 0%; pest or weed control at 25 µg/mL (cucumber downy mildew; [7]): 0%; pest or weed control at 50 µg/mL (cucumber downy mildew; [8]): 0%; pest or weed control at 100 µg/mL (cucumber downy mildew; [9]): 0%; pest or weed control at 25 µg/mL (cucumber downy mildew; [10]): 0%; pest or weed control at 50 µg/mL (cucumber downy mildew; [11]): 0%
CN(C)c1ccc(Nc2c(Cl)c(Cl)c(C#N)c(Cl)c2C#N)cc1 [KC23] |  |  |  |  |  |  |  | 0 | 0 | 0 | 0 | 0 | 0 | 0 | inhibition at 25 µg/mL (cucumber gray mold; in vitro): 0%; inhibition at 25 µg/mL (rice blast; [5]): 0%
CCOc1ccccc1Nc1c(F)c(F)c(C#N)c(C#N)c1F [KC26] |  |  |  |  |  |  |  | 0 | 0 | 0 | 0 | 0 | 0 | 0 | inhibition at 25 µg/mL (cucumber gray mold; in vitro): 0%; inhibition at 25 µg/mL (rice blast; [5]): 0%; pest or weed control at 6.25 µg/mL (corn rust; Zea mays, 168 h, 6.25 mg/L): 0%; pest or weed control at 25 µg/mL (corn rust; Zea mays, 168 h, 25 mg/L): 0%; pest or weed control at 100 µg/mL (corn rust; Zea mays, 168 h, 100 mg/L): 0%; pest or weed control at 400 µg/mL (corn rust; Zea mays, 168 h, 400 mg/L, read-out: the protectant activity (%) against corn rust): 0%; pest or weed control at 400 µg/mL (corn rust; Zea mays, 168 h, dose 400 mg/L, read-out: protectant activity against corn rust in vivo): 0%
N#Cc1c(F)c(F)c(Nc2c(Cl)c(F)nc(F)c2Cl)c(F)c1C#N [KC28] |  |  |  |  |  |  |  | 0 | 0 | 0 | 0 | 0 | 0 | 0 | inhibition at 8.3 µg/mL (cucumber gray mold; in vitro, dose 8.3 mg/L, read-out: inhibition rate against cucumber gray mold): 0%; inhibition at 25 µg/mL (cucumber gray mold; in vitro): 80%; inhibition at 2.8 µg/mL (rice blast; [5]): 0%; inhibition at 8.3 µg/mL (rice blast; [5]): 50%; inhibition at 25 µg/mL (rice blast; [5]): 80%

From US8937072B2, “Substituted cyanoaniline compounds, preparation and use thereof” (Sinochem Corporation, priority 2011, dated 2015)
